The subject of data set [1] is chorion of zebrafish eggs. Kind of data set: Uptake of fluorescein-dextran by zebrafish eggs incubated with guanidine-containing compounds (chorion permeability). It is filed as in vivo. The conditions noted are these: 40 mM compound, 1 μM of 10, 20 or 40 KD fluorescein-dextran, 24 hours, versus untreated eggs. How it is done: Zebrafish eggs were incubated in solutions that contained 1 μM of 10, 20 or 40 KD fluorescein-dextran with either 0 or 40 mM of arginine, guanidine-HCl or guanidine-thiocyanate for 24 hours.
40 zebrafish eggs were transferred into each well of 48-well plates that contained 300 μl of fresh tank system water. After the allocation of eggs, system water in each well was replaced with 300 μl of water that contained 0 or 40 μM of poly-arginine (9-arginine polymer) and 1 μM of 10 KD fluorescein-dextran. After 4 hours of incubation the eggs were examined using a MZ12 stereomicroscope (Leica, Buffalo Grove, USA), or an Axioplan 2 fluorescence microscope (ZEISS, Thornwood, N.Y., USA). Both microscopes were equipped with a DP70 digital camera (Olympus, Center Valley, Pa., USA).

The subject of a further data set is Atlantic salmon eggs. The experiment in a line: Induction of sterility in Atlantic salmon by immersion of eggs in salmonids' dnd-MO or dnd-MO-Vivo. The conditions noted are these: 10-month-old fish. How it is done: A salmonids' dnd-MO (see Example 5) or a dendrimeric octaguanidine with a triazine core also known as Vivo, which was conjugated to salmonids' dnd-MO, resulting in salmonids' dnd-MO-Vivo, was used to induce sterility in Atlantic salmon and was tested by administering the following: • I: Salmonids' dnd-MO-Vivo 10 μM for 48 hours, administration to fertilized eggs at the beginning of water activation (within 1 minute). • II: Salmonids' dnd-MO-Vivo 10 μM for 48 hours, administration to unfertilized eggs with the immersion medium of the ovarian fluid. The eggs were fertilized after 48 hours of incubation. • III: Salmonids' dnd-MO-Vivo 10 μM for 48 hours, administration to unfertilized eggs with the immersion medium that contains salt, Tris (pH 8.0), Glycine, and 5% of fish serum. The fertilization was conducted after 48 hours of incubation. • IV: Salmonids' dnd-MO 20 μM for 48 hours, administration to unfertilized eggs with the immersion medium of the ovarian fluid. The eggs were fertilized after 48 hours of incubation. • V: Salmonids' dnd-MO 20 μM for 48 hours, administration to unfertilized eggs with the immersion medium that contains salt, Tris (pH 8.0), Glycine, and 5% of fish serum. The eggs were fertilized after 48 hours of incubation. • VI: Water or immersion medium only without neither salmonids' dnd-MO-Vivo nor dnd-MO as controls.

The subject of data set [2] is rainbow trout embryos / unfertilized eggs. Kind of data set: Induction of sterility in rainbow trout by immersion of eggs in salmonids' dnd-MO-Vivo. The settings on record: 10 μM for 48 hours. How it is done:
A dendrimeric octaguanidine with a triazine core also known as Vivo, was conjugated to salmonids' dnd-MO, 5′-[…]-3′ (SEQ ID NO. 3) and used in an immersion containing rainbow trout embryos in water, or unfertilized eggs in ovarian fluid or fertilization diluent. The ability of methods disclosed herein to induce sterility in rainbow trout was tested by administering the following:
I: Salmonids' dnd-MO-Vivo 10 μM for 48 hours, administration to fertilized eggs at the beginning of water activation (within 1 minute)
II: Salmonids' dnd-MO-Vivo 10 μM for 48 hours, administration to unfertilized eggs with the immersion medium of the ovarian fluid. The fertilization was conducted after 48 hours of incubation.
III: Salmonids' dnd-MO-Vivo 10 μM for 48 hours, administration to unfertilized eggs with the fertilization diluent that contains salt, Tris (pH 8.0), Glycine, and 5% of fish serum. The fertilization was conducted after 48 hours of incubation.
IV: Water or immersion medium only without salmonids' dnd-MO-Vivo as controls.

With `N#CS.N=C(N)N` [guanidine-thiocyanate], in data set [1], the “uptake of fluorescein-dextran in the eggs (green fluorescence)” value is “enhanced the uptake of fluorescein-dextran”.
Consider “salmonids' dnd-MO: antisense Morpholino oligomer against salmonid dead end, 5′-CTGACTTGAACGCTCCTCCATTATC-3′ (SEQ ID NO. 3) (all phosphorodiamidate morpholino (PMO))”, for which, in the data set on Atlantic salmon eggs (dnd-MO 20 μM for 48 hours, treatments IV, V (unfertilized eggs in ovarian fluid or immersion medium)), the gonad morphology result was “developed into a thin filament-like tissue”. Moreover, the “gonadal development in Atlantic salmon” value in the data set on Atlantic salmon eggs (dnd-MO 20 μM for 48 hours, unfertilized eggs) is listed as “blocked gonadal development”.
On to “salmonids' dnd-MO-Vivo: Vivo (dendrimeric octaguanidine with a triazine core) conjugated to salmonids' dnd-MO, 5′-CTGACTTGAACGCTCCTCCATTATC-3′ (SEQ ID NO. 3) (all phosphorodiamidate morpholino (PMO); Vivo octaguanidine dendrimer conjugated, attachment position not given here)”, for which, in the data set on Atlantic salmon eggs (dnd-MO-Vivo 10 μM for 48 hours), the “gonadal development in Atlantic salmon” value is reported as “blocked gonadal development”. In addition, the gonad morphology result with Atlantic salmon eggs (dnd-MO-Vivo 10 μM for 48 hours, treatments I, II, III) was “developed into a thin filament-like tissue”; in data set [2] (treatments I, II and III (fertilized eggs at water activation; unfertilized eggs in ovarian fluid or fertilization diluent)), “developed into a thin filament-like tissue”. The “infertility in rainbow trout” value in data set [2] is recorded as “induced infertility”. The “histological examination of gonadal tissue” value in data set [2] (treatments I, II and III) is listed as “under-developed without advanced gonadal structure or germ cells”.
As for `N=C(N)NCCC[C@H](N)C(=O)O` [arginine], the “uptake of fluorescein-dextran in the eggs (green fluorescence)” value in data set [1] was “enhanced the uptake of fluorescein-dextran”.
Same read-out and setting: the result for `Cl.N=C(N)N` [guanidine-HCl] reads “enhanced the uptake of fluorescein-dextran”.
